Legend:
Type in all cases: biochemical
B-Raf = B-Raf (Homo sapiens (Human), UniProt P15056); experiment: Raf kinase assay (B-Raf), [33P] incorporation into MEK1(K97R); details: for inhibition at 1 µM: 1.0 μM compound, read-out: B-Raf inhibition at 1.0 μM
Procedure, shortened: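 Recombinant C-Raf (2 ng) or B-Raf or B-Raf V600E (5 ng each) phosphorylated 500 ng MEK1(K97R) with 8 μM ATP plus [33P]ATP, pH 7.5, 30 min at 30 °C. Filter-captured 33P counted. IC50 from 3-fold compound dilutions run in duplicate.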

EGFR kinase = EGFR kinase (Homo sapiens (Human), UniProt P00533); experiment: EGFR kinase assay
Chain of EGFR kinase (P00533 712-979): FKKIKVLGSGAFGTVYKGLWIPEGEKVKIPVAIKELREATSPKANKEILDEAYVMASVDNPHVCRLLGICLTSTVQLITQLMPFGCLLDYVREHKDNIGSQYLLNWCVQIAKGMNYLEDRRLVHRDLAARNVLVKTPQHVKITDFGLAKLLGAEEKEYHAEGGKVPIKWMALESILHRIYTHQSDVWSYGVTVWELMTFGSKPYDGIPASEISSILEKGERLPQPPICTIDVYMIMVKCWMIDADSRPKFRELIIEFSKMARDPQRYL
Procedure: Inhibition of EGFR kinase activity by compounds disclosed herein is quantified by measuring the amount of [^33P] incorporated into the substrate in the presence of a test compound. Briefly, a reaction mixture of 25 μL final volume containing 25 ng of EGFR kinase (EGFR kinase domain alone, Millipore), 3 μg of the substrate [poly(Glu-Tyr), Sigma], kinase reaction buffer (10 mM MOPS pH 7.0, 0.3 mM EDTA, 0.5% glycerol, 0.001% Brij-35, 10 mM MnCl2, 0.1 mg/ml BSA, 100 μM ATP, 0.1 μCi per well [^33P]-γ-ATP (2,500-3,000 Ci/mmol)), and a test compound (100 nM, diluted with 4% DMSO) or DMSO (as the control) was incubated at 30° C. for 30 minutes. The reaction was stopped by adding 5 μL of 3% phosphoric acid solution. The resultant reaction solution was then harvested onto a filter plate (UniFilter-96 GF/B, PerkinElmer), washed 20 times for 5 min with d.d. H2O, and followed by the addition of 30 μL of MicroScint™-20 Cocktail (PerkinElmer). The radioactivity retained on the filter membrane was measured by TopCount™ scintillation detector (PerkinElmer). The results were analyzed by using linear regression software (GraphPad Prism™ 4; GraphPad Software Inc.). IC50 value is defined as the concentration of the test compound which achieves a half-maximal inhibition of the kinase activity.

EGFR (T790M) kinase = EGFR (T790M) kinase (Homo sapiens (Human), UniProt P00533, T790M); experiment: EGFR (T790M) kinase assay
Chain of EGFR (T790M) kinase (P00533 712-979 T790M): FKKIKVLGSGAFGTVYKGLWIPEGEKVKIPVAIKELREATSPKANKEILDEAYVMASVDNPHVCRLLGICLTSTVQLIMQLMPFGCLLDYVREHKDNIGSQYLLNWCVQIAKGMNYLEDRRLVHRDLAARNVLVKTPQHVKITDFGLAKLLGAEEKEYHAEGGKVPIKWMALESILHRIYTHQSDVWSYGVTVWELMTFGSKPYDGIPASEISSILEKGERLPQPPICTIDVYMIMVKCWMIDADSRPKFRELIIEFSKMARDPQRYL
Procedure: C. EGFR (T790M) Kinase Assay
Inhibition of EGFR (T790M) kinase activity by compounds disclosed herein was quantified by measuring the amount of [^33P] incorporated into the substrate in the presence of a test compound. Briefly, a reaction mixture of 25 μL final volume containing 25 ng of EGFR (T790M) kinase (EGFR (T790M) kinase domain alone, Millipore), 5 μg of the substrate [poly(Glu-Tyr), Sigma], kinase reaction buffer (10 mM MOPS pH 7.0, 0.3 mM EDTA, 0.5% glycerol, 0.001% Brij-35, 10 mM MnCl2, 0.1 mg/ml BSA, 100 μM ATP, 0.1 μCi per well [^33P]-γ-ATP (2,500-3,000 Ci/mmol)), and a test compound (100 nM; diluted with 4% DMSO) or DMSO (as the control) was incubated at 30° C. for 60 minutes. The reaction was stopped by adding 5 μL of 3% phosphoric acid solution. The resultant reaction solution was then harvested onto a filter plate (UniFilter-96 GF/B, PerkinElmer), washed 20 times for 5 min with d.d. […] The radioactivity retained on the filter membrane was measured by TopCount™ scintillation detector (PerkinElmer). The results were analyzed by using linear regression software (GraphPad Prism™ 4; GraphPad Software Inc.). The percentage of inhibition of EGFR (T790M) by the test compound was calculated by dividing the retained radioactivity of the test sample with the retained radioactivity of the control sample and shown in Table 4.

Cdk1 kinase = Cdk1 kinase (Homo sapiens (Human), UniProt P06493); experiment: CDK1 kinase assay
Chain of Cdk1 kinase (P06493 4-287): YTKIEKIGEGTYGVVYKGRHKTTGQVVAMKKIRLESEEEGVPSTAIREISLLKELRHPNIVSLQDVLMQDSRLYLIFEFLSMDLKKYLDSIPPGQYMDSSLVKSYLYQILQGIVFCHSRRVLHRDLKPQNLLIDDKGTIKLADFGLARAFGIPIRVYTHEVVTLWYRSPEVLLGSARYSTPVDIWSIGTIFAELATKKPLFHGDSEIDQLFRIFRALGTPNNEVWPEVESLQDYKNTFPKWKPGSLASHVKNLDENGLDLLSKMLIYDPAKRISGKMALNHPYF
Chain of Cdk1 kinase (P14635 whole entry partner, the tested form may be a part): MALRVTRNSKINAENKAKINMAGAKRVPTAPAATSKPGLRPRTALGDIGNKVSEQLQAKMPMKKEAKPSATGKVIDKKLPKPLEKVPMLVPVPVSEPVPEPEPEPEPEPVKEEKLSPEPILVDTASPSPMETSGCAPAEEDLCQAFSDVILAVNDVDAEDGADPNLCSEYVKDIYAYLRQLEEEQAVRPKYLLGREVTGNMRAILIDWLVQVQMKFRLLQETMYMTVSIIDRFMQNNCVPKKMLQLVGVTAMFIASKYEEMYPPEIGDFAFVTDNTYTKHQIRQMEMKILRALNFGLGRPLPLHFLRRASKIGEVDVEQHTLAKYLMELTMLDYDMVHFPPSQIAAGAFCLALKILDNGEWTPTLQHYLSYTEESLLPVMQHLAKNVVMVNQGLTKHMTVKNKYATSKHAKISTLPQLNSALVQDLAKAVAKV
Procedure: Inhibition of Cdk1 kinase activity by compounds disclosed herein was quantified by measuring the amount of [^33P] incorporated into the substrate in the presence of a test compound. Briefly, a reaction mixture of 25 μL final volume containing 5 ng of Cdk1 kinase (Cdk1 kinase domain alone, Millipore), 3 μg of the substrate [Histone H1], kinase reaction buffer (10 mM MOPS pH 7.0, 0.3 mM EDTA, 0.5% glycerol, 0.001% Brij-35, 0.1 mg/ml BSA, 10 μM ATP, 0.1 μCi per well [^33P]-γ-ATP (2,500-3,000 Ci/mmol)), and a test compound (100 nM, diluted with 4% DMSO) or DMSO (as the control) was incubated at 30° C. for 30 minutes. The reaction was stopped by adding 5 μL of 3% phosphoric acid solution. The resultant reaction solution was then harvested onto a filter plate (UniFilter-96 GF/B, PerkinElmer), washed 20 times for 5 min with d.d. H2O, and followed by the addition of 30 μL of MicroScint™-20 Cocktail (PerkinElmer). The radioactivity retained on the filter membrane was measured by TopCount™ scintillation detector (PerkinElmer). The results were analyzed by using linear regression software (GraphPad Prism™ 4; GraphPad Software Inc.).

Chain of B-Raf (P15056 whole entry): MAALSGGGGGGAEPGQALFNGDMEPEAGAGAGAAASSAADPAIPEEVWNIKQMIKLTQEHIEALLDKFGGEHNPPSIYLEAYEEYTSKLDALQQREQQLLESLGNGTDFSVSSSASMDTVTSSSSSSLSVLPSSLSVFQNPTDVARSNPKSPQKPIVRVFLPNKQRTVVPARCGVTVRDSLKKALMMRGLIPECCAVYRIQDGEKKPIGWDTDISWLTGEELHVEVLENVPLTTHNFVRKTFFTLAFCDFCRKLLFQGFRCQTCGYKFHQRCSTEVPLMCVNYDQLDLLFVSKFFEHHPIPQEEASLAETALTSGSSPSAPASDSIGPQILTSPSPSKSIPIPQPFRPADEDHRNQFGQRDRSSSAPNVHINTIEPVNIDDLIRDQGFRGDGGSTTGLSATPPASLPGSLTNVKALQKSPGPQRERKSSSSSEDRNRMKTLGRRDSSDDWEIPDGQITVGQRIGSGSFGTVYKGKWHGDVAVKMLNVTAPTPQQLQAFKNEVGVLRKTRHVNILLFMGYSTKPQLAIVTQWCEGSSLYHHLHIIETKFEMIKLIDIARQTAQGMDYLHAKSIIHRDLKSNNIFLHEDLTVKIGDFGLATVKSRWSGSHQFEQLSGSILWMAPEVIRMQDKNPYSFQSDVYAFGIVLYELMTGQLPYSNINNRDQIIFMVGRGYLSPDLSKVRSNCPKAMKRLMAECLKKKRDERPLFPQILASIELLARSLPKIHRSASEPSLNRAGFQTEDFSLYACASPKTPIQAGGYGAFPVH

| IC50 (B-Raf) | inhibition at 1 µM (B-Raf) | IC50 (EGFR kinase) | inhibition at 1 µM (EGFR (T790M) kinase) | inhibition at 1 µM (Cdk1 kinase) | SMILES |
| --- | --- | --- | --- | --- | --- |
| 16.1 nM | 92.6% | 14.9 nM | 60% | 78% | COc1cc(-c2ccc3ncnc(Nc4cc(O)ccc4F)c3c2)ccc1O [Compound 58, 4-(4-(2-fluoro-5-hydroxyphenylamino)quinazolin-6-yl)-2-methoxyphenol] |
| 30.2 nM | 94.2% | 18.7 nM | 66% | 88% | COc1cc(-c2ccc3ncnc(Nc4cccc(O)c4)c3c2)ccc1O [Compound 8, 4-(4-(3-hydroxyphenylamino)quinazolin-6-yl)-2-methoxyphenol] |

Source: patent US8785459B2, “Quinazoline compounds as kinase inhibitors” (Development Center for Biotechnology, priority 2011, dated 2014)
